Values quoted from earlier work, collected in patent US20140105862A1, “STREPTOMYCES MICROFLAVUS STRAINS AND METHODS OF THEIR USE TO CONTROL PLANT DISEASES AND PESTS” (priority 2012, published 2014).

Columns and labels:
powdery mildew = conditions: according to GB 1 507 193
[1] = system: parasites on animals, such as pin worm; conditions: according to U.S. Pat. No. 3,849,398
[2] = system: gram-positive, gram-negative bacteria and tubercule bacillus; conditions: according to U.S. Pat. No. 3,849,398

SMILES	antifungal activity (powdery mildew)	parasiticidal action [1]	antibacterial activity [2]
NC(N)=NCC(O)CC(O)(C(=O)O)[C@H]1O[C@@H](n2cc(CO)c(N)nc2=O)C=C[C@@H]1NC(=O)[C@@H](N)CO (stereo partly drawn) [Strain B-98891]	antifungal activity	–	–
CNCC(=O)NC(CO)C(=O)NC1C(C(N)=O)OC(n2ccc(N)nc2=O)C(O)C1O (stereo not drawn) [gougerotin]	–	parasiticidal action	weak antibacterial activity
